Measurements published in patent US7557222B2, “1-[(4-Ethynylphenyl)]-2-[(phenyl)]-pyrrolidine-1,2-dicarboxamide derivatives as inhibitors of coagulation factors Xa and VIIa for the treatment of thrombosis” (priority 2003, dated 2009).
pIC50: −log10 of the molar value.

What follows are compounds tested against T1, TF/FVIIa (Homo sapiens, UniProt P08709) (assay: TF/FVIIa inhibition (TF/FVIIa-IC50)). Conditions: not given.
T1 construct: Coagulation factor VIIa initiates the extrinsic part of the coagulation cascade
T1 sequence (P08709 61-212): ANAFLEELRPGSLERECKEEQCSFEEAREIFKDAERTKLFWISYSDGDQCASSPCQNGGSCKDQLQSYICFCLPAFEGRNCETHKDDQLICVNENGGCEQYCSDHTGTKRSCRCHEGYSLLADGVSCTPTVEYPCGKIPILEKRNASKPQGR
T1 sequence (P08709 213-466): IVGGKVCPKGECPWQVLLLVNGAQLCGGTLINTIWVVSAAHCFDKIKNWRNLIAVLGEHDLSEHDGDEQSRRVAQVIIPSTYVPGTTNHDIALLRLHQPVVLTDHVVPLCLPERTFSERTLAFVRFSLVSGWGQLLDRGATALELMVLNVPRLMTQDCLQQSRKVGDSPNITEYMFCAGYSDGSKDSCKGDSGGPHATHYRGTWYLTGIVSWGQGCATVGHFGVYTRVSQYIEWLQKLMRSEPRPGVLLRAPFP
T1 sequence (P13726 33-295, further chain): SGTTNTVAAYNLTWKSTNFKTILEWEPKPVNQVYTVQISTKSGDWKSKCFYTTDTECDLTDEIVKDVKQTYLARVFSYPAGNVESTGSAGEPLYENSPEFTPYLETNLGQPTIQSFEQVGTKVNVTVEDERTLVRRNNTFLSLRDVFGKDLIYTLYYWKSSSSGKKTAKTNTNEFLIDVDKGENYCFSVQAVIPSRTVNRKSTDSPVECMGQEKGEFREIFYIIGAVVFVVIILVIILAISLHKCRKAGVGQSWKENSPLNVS
Type: biochemical
Compound `C#Cc1ccc(NC(=O)N2C[C@H](OC)C[C@@H]2C(=O)Nc2ccc(-n3ccccc3=O)cc2)cc1` [Compound A1, 1-[(4-ethynylphenyl)]-2-{[4-(2-oxo-2H-pyridin-1-yl)phenyl]}-(2R,4R)-4-methoxypyrrolidine-1,2-dicarboxamide] has a pIC50 of 8.72.
In the case of `C#Cc1ccc(NC(=O)N2C[C@H](OC)C[C@@H]2C(=O)Nc2ccc(N3CCOCC3=O)cc2)cc1` [Compound A2, 1-[(4-ethynylphenyl)]-2-{[4-(3-oxomorpholin-4-yl)phenyl]}-(2R,4R)-4-methoxypyrrolidine-1,2-dicarboxamide], the pIC50 was 8.49.

These compounds were tested against FXa (Homo sapiens, UniProt P00742) (assay: Factor Xa inhibition (FXa-IC50)). Conditions: not given.
Sequence of FXa (P00742 235-488 limits assumed): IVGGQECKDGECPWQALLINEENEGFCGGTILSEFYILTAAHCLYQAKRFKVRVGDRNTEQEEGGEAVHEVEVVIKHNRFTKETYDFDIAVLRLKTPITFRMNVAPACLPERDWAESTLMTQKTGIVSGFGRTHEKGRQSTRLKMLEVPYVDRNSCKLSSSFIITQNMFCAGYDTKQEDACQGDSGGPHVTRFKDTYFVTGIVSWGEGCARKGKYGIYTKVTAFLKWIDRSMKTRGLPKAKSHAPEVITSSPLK
Sequence of FXa (P00742 41-179 partner limits assumed): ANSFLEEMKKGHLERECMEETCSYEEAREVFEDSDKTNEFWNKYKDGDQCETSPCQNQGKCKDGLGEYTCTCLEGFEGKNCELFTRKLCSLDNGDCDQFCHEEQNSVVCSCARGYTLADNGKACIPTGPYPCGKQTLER
Type: biochemical
In the case of `C#Cc1ccc(NC(=O)N2C[C@H](OC)C[C@@H]2C(=O)Nc2ccc(-n3ccccc3=O)cc2)cc1` [Compound A1, 1-[(4-ethynylphenyl)]-2-{[4-(2-oxo-2H-pyridin-1-yl)phenyl]}-(2R,4R)-4-methoxypyrrolidine-1,2-dicarboxamide], the pIC50 was 8.89.
`C#Cc1ccc(NC(=O)N2C[C@H](OC)C[C@@H]2C(=O)Nc2ccc(N3CCOCC3=O)cc2)cc1` [Compound A2, 1-[(4-ethynylphenyl)]-2-{[4-(3-oxomorpholin-4-yl)phenyl]}-(2R,4R)-4-methoxypyrrolidine-1,2-dicarboxamide] showed a pIC50 of 8.51.

Same assay, conditions: read-out: FXa-IC50
With `C#Cc1ccc(NC(=O)N2CC(OCC)CC2C(=O)Nc2ccc(N3CCCCC3=O)cc2)cc1` [Compound A4-1, 1-[(4-ethynylphenyl)]-2-{[4-(2-oxopiperidin-1-yl)phenyl]}-(2R,4R)-4-ethoxypyrrolidine-1,2-dicarboxamide] the pIC50 was 8.52.
`C#Cc1ccc(NC(=O)N2CC(OCC)CC2C(=O)Nc2ccc(-n3ccccc3=O)c(F)c2)cc1` [Compound A4-2, 1-[(4-ethynylphenyl)]-2-{[3-fluoro-4-(2-oxo-2H-pyridin-1-yl)phenyl]}-(2R,4R)-4-ethoxypyrrolidine-1,2-dicarboxamide] was tested, and the pIC50 was 8.72.
Work on `C#Cc1ccc(NC(=O)N2CC(O)CC2C(=O)Nc2ccc3c(c2)CCN3C(C)=O)cc1` [Compound A4-3, 1-[(4-ethynylphenyl)]-2-{[1-acetyl-2,3-dihydro-1H-indol-5-yl]}-(2R,4R)-4-hydroxypyrrolidine-1,2-dicarboxamide] yielded a pIC50 of 5.59.
`C#Cc1ccc(NC(=O)N2CC(OC)CC2C(=O)Nc2ccc(-n3ccccc3=O)c(OC)c2)cc1` [Compound A4-4, 1-[(4-ethynylphenyl)]-2-{[3-methoxy-4-(2-oxo-2H-pyridin-1-yl)phenyl]}-(2R,4R)-4-methoxypyrrolidine-1,2-dicarboxamide] was tested, and the pIC50 was 8.55.
In the case of `C#Cc1ccc(NC(=O)N2CC(OCC=C)CC2C(=O)Nc2ccc(N3CCOCC3=O)cc2)cc1` [Compound A4-5, 1-[(4-ethynylphenyl)]-2-{[4-(3-oxomorpholin-4-yl)phenyl]}-(2R,4R)-4-allyloxypyrrolidine-1,2-dicarboxamide], the pIC50 was 8.51.
`C#CCO[C@@H]1C[C@H](C(=O)Nc2ccc(N3CCOCC3=O)cc2)N(C(=O)Nc2ccc(C#C)cc2)C1` [Compound A4-6, 1-[(4-ethynylphenyl)]-2-{[4-(3-oxomorpholin-4-yl)phenyl]}-(2R,4R)-4-propargyloxypyrrolidine-1,2-dicarboxamide] was tested, and the pIC50 was 8.89.
`C#Cc1ccc(NC(=O)N2CC(OCC(O)CO)CC2C(=O)Nc2ccc(N3CCOCC3=O)cc2)cc1` [Compound A4-7, 1-[(4-ethynylphenyl)]-2-{[4-(3-oxomorpholin-4-yl)phenyl]}-(2R,4R)-4-(2,3-dihydroxypropoxy)pyrrolidine-1,2-dicarboxamide] gave a pIC50 of 8.51.
With `C#Cc1ccc(NC(=O)N2CC(OC)CC2C(=O)Nc2ccc(N3CC(O)CC3C(=O)OC)cc2)cc1` [Compound A4-8, 1-[(4-ethynylphenyl)]-2-{[4-(2-methoxycarbonyl-4-hydroxypyrrolidin-1-yl)phenyl]}-(2R,4R)-4-methoxypyrrolidine-1,2-dicarboxamide] the pIC50 was 5.96.
Compound `C#Cc1ccc(NC(=O)N2C[C@H](OCCOC)C[C@@H]2C(=O)Nc2ccc(N3CCOCC3=O)cc2)cc1` [Compound A4-9, 1-[(4-ethynylphenyl)]-2-{[4-(3-oxomorpholin-4-yl)phenyl]}-(2R,4R)-4-(methoxyethoxy)pyrrolidine-1,2-dicarboxamide] has a pIC50 of 8.48.
In the case of `C#Cc1ccc(NC(=O)N2C[C@H](OCC(=O)OC)C[C@@H]2C(=O)Nc2ccc(N3CCOCC3=O)cc2)cc1` [Compound A4-10, 1-[(4-ethynylphenyl)]-2-{[4-(3-oxomorpholin-4-yl)phenyl]}-(2R,4R)-4-(methoxycarbonylmethoxy)pyrrolidine-1,2-dicarboxamide], the pIC50 was 8.38.
In the case of `C#Cc1ccc(NC(=O)N2C[C@H](OCC(=O)O)C[C@@H]2C(=O)Nc2ccc(N3CCOCC3=O)cc2)cc1` [Compound A4-11, 1-[(4-ethynylphenyl)]-2-{[4-(3-oxomorpholin-4-yl)phenyl]}-(2R,4R)-4-(carboxymethoxy)pyrrolidine-1,2-dicarboxamide], the pIC50 was 8.32.
For `C#Cc1ccc(NC(=O)N2C[C@H](OC)C[C@@H]2C(=O)Nc2ccc(-n3nc(C)ccc3=O)cc2)cc1` [Compound A4-12, 1-[(4-ethynylphenyl)]-2-{[4-(6-methyl-3-oxo-2H-pyridazin-2-yl)phenyl]}-(2R,4R)-4-methoxypyrrolidine-1,2-dicarboxamide], the pIC50 was 5.68.
